The values below come from article PMC5654082 (Malaria Journal, 2017).

For series [1] the following is noted: cited from earlier work.
For series [2], the target named is T1, human OCT2 (Homo sapiens, UniProt O15244).
T1 construct: host or cells: HEK293, baculovirus transduction (CMV promoter), transient
T1 sequence (O15244 1-555): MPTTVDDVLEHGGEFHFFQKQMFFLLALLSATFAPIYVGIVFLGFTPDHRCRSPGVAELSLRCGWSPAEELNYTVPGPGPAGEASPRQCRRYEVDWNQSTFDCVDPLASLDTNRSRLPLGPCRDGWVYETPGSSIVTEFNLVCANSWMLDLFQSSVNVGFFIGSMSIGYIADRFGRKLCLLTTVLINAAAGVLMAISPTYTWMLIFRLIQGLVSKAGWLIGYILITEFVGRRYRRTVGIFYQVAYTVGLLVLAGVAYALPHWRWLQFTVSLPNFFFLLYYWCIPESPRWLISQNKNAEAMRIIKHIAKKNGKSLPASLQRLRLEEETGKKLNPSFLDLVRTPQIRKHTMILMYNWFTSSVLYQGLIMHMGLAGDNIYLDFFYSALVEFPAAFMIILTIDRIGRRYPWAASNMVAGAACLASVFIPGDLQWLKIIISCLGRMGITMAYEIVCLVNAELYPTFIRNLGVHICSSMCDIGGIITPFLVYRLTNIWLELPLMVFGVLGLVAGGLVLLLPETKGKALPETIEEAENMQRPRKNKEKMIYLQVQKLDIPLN
The series can be described thus: Inhibition of OCT2-mediated ASP uptake in transduced HEK293 cells. It is filed as cell-based. The settings on record: 10 µM ASP, 10 min, 37 °C. How it is done:
HEK293 cells were modified to transiently express (a combination of) human OCT1, OCT2, MATE1, MATE2-K, or eYFP. Briefly, cDNA of the respective genes was cloned downstream of a CMV promoter into a baculovirus, of which passage three was used to transduce HEK293 cells. These cells were seeded in poly-D-lysine coated 24- or 96-wells plates and grown in a 37 °C incubator at 5% CO2. […] After 24 h, cells were transduced with 30 µL virus (10 µL virus + 20 µL complete medium in case of 96-wells plates) or 2 × 15 µL virus for cells that required simultaneous expression of two transporters. Finally, 195 µL sodium butyrate (45 µL for 96-wells plates) was added to a final concentration of 2 mM to enhance protein expression.
AMO (10 mM), ASP (1 mM), CQ (10 mM), PQ (10 mM) and PG (10 mM) were dissolved in MilliQ water. ART (10 mM), ATO (10 mM), DHA (10 mM), LUM (10 mM), MQ (10 mM), NMQ (20 mM), PYR (10 mM), QN (10 mM) were dissolved in DMSO. All compound stocks were stored at − 20 °C. Inhibition of OCT1- or OCT2-mediated ASP uptake by anti-malarials was performed in poly-D-lysine coated 96-wells plates 2 or 3 days following HEK293 cell transduction. In short, cells were washed with 125 µL 37 °C HBSS containing 10 mM HEPES, pH 7.4. […] ASP transport was stopped by washing with 125 µL ice-cold HBSS-HEPES buffer supplemented with 0.5% BSA.
For each compound, a range of seven concentrations was used to determine the concentration at which ASP uptake was inhibited half maximally (IC50). At least three independent experiments (4 for QN) were performed for each drug in triplicate as described above. […] To generate the final dose–response inhibition curve per anti-malarial, percentage of uptake was averaged for each drug concentration per experiment and the resulting mean ± SEM corresponding to three or four independent experiments were plotted.

For series [3] the following is noted: Thai children with uncomplicated multidrug-resistant falciparum malaria; (geometric) mean or median; cited from earlier work.

In general, IC50 refers to the concentration needed to halve the response being measured.

The structures appear in SMILES notation. Where a name gives a salt, the structure may show the parent alone. Marks after values point to notes of the source that are not given here.

Consider `[H]/N=C(\N/C(=N/[H])Nc1ccc(Cl)cc1)NC(C)C` [Proguanil, proguanil hydrochloride], for which the Unbound fraction in series [1] is 0.25 [39]. Also, the IC50 in series [2] (seven concentrations) stood at 13 µM. Also, in series [2] (50 µM anti-malarial, relative to solvent control fixed at 100%), the “Relative ASP uptake (OCT2-mediated)” value is reported as 19 ± 7%. In addition, the Cmax in series [3] was 306^d [47] ng/mL.
